One series relates to HepG-2 cells. Description: MTT cytotoxicity assay, liver cancer cells. Type of series: cell-based, human. The conditions noted are these: for IC50: Homo sapiens, HepG2, MTT, 72 h, mean ± SEM, read-out: HepG-2 IC50; for HepG-2 SI: ratio of IC50 against normal cells (Wi-38) to IC50 against HepG-2. The procedure:
(§1) Wi-38, Caco-2 and HepG-2 cells were cultured in DMEM medium-contained 10% FBS, seeded as 5 × 10^3 cells per well in 96-well cell culture plate and incubated at 37 °C in 5% CO2 incubator. After 24 h, serial concentrations of the test compounds were incubated with cells for 72 h. Cell viability was assayed via MTT protocol[27] (Supplementary data). IC50 values of the synthesized compounds were measured via the Graphpad Instat software. Morphological changes were examined using phase contrast inverted microscope with a digital camera (Olympus, Japan). […]
(§2) Normal human lung fibroblast Wi-38 cell line was used to detect cytotoxicity of the studied compounds.
(§3) Wi-38 cell line was cultured in DMEM medium-contained 10% fetal bovine serum (FBS), seeded as 5x10^3 cells per well in 96-well cell culture plate and incubated at 37 °C in 5% CO2 incubator. After 24 h for cell attachment, serial concentrations of the synthetic compounds and standard chemotherapy (5-fluorouracil) were incubated with Wi-38 cells for 72 h. Cell viability was assayed by MTT method Twenty microliters of 5 mg/ml MTT (Sigma, USA) was added to each well and the plate was incubated at 37 °C for 3 h. Then MTT solution was removed, 100 µl DMSO was added, and the absorbance of each well was measured with a microplate reader (BMG LabTech, Germany) at 570 nm. The dose (EC50 and EC100) values (at 50% and100% cell viability, respectively) of the tested compounds was estimated by the Graphpad Instat software.
(§4) The anticancer effect of the above-mentioned compounds was assayed using human colon cancer cell line (Caco-2) and liver cancer cell line (HepG-2) that were cultured in DMEM (Lonza, USA) supplemented with 10%
(§5) FBS. All cancer cells (5x10^3 cells/well) were seeded in sterile 96-well plates. After 24h, serial concentrations of the tested compounds and 5-fluorouracil (Fu) were incubated with two cancer cell lines for 72 h at 37 °C in 5% CO2 incubator. MTT method was done as described above. The half maximal inhibitory concentration (IC50) values were calculated using the Graphpad Instat software. Furthermore, cellular morphological changes before […]
(§6) contrast inverted microscope with a digital camera (Olympus, Japan).
On the technique in general: Tetrazolium assays rely on reduction of a dye to a coloured formazan, in cell work by metabolically active cells.

In the next series the test system is Caco-2 cells. Briefly: MTT cytotoxicity assay, colorectal cancer cells. To be noted: for IC50: Homo sapiens, Caco-2, MTT, 72 h, mean ± SEM, read-out: Caco-2 IC50 (converted); for Caco-2 SI: ratio of IC50 against normal cells (Wi-38) to IC50 against Caco-2. Type of series: cell-based, human. On the procedure: as §1, §2, §3, §4, §5, §6
For a further series, the system named is Wi-38 cells. Briefly: MTT cytotoxicity assay, normal human fibroblasts. To be noted: 72 h, mean ± SEM; for MNTC: dose at 100% cell viability, read-out: Wi-38 EC100. Type of series: cell-based. The procedure:
as §1, §2
as §3, with “software. […]” for “software.”

The source of these data is paper PMC9794698, “Structure optimization of new tumor-selective Passerini α-acyloxy carboxamides as Caspase-3/7 activators” (Scientific Reports, 2022).

As for `CCOC(=O)c1ccc(NC(=O)C2(OC(=O)CS)CCCCC2)cc1` [7k, Ethyl-4-(1-(2-mercaptoacetoxy)cyclohexane-1-carboxamido)benzoate], the melting point (commonly the temperature of the solid-liquid transition) lay in the range of 108 to 110 °C. In the series with HepG-2 cells, the IC50 (commonly the midpoint of a concentration-inhibition curve) was determined as 0.141 µM and the “HepG-2 SI” value is listed as 68.567. In addition, in the series on Caco-2 cells, the IC50 is 0.14 ± 0.003 µM and the “Caco-2 SI” value worked out at 69.057. In the series on Wi-38 cells, the MNTC is 1465 ± 10 nM and the half-inhibitory concentration (IC50) came to 9.67 ± 0.102 µM.
As for `CCOC(=O)c1ccc(NC(=O)C2(OC(=O)c3ccccc3I)CCCCC2)cc1` [7f, 1-((4-(Ethoxycarbonyl)phenyl)carbamoyl)cyclohexyl 2-iodobenzoate], the melting point was 148 to 150 °C. Further, in the series with HepG-2 cells, the IC50 was 0.147 ± 0.046 µM and the “HepG-2 SI” value came to 116.020. Further, in the series on Caco-2 cells, the concentration for half-maximal inhibition (IC50) was 0.129 ± 0.028 µM and the “Caco-2 SI” value worked out at 132.209. Also, in the series on Wi-38 cells, the MNTC is 967 ± 26 nM and the half-maximal inhibitory concentration (IC50) was determined as 17.1 ± 1.69 µM.
With `CCOC(=O)c1ccc(NC(=O)C2(OC(=O)c3ccc(Cl)cc3)CCCCC2)cc1` [7d, 1-((4-(Ethoxycarbonyl)phenyl)carbamoyl)cyclohexyl 4-chlorobenzoate], the melting point fell in the range of 193 to 195 °C. Further, in the series on HepG-2 cells, the IC50 was found to be 0.407 ± 0.016 µM and the “HepG-2 SI” value stood at 60.830. In the series with Caco-2 cells, the IC50 was 0.201 ± 0.019 µM and the “Caco-2 SI” value turned out to be 123.174. In addition, in the series on Wi-38 cells, the MNTC was determined as 1700 ± 165 nM and half-maximal inhibition (IC50) was put at 24.8 ± 10.2 µM.
For the molecule `CCOC(=O)c1ccc(NC(=O)C2(OC(=O)C=Cc3ccc(C(F)(F)F)cc3)CCCCC2)cc1` [7h, Ethyl-4-(1-((3-(4-(trifluoromethyl)phenyl)acryloyl)oxy)cyclohexanecarboxamido)benzoate], the melting point lay in the range of 145 to 147 °C. Besides, in the series with HepG-2 cells, the 50% inhibitory concentration (IC50) was 0.259 ± 0.073 µM and the “HepG-2 SI” value came out at 72.111. Also, in the series on Caco-2 cells, the concentration for half-maximal inhibition (IC50) was 0.138 ± 0.014 µM and the “Caco-2 SI” value was determined as 135.340. In the series on Wi-38 cells, the MNTC is 1650 ± 39 nM and it took 18.7 ± 2.04 µM to reach half-maximal inhibition (IC50).
`CCOC(=O)c1ccc(NC(=O)C2(O)CCCCC2)cc1` [compound 9, Ethyl 4-(1-hydroxycyclohexanecarboxamido)benzoate] came in with a melting point of 160 to 163 °C. Further, in the series on HepG-2 cells, the IC50 was 0.15 ± 0.004 µM and the “HepG-2 SI” value came to 112.186. Further, in the series with Caco-2 cells, the IC50 was 0.154 ± 0.007 µM and the “Caco-2 SI” value is 109.272. Also, in the series on Wi-38 cells, the MNTC turned out to be 3220 ± 217 nM and the 50% inhibitory concentration (IC50) turned out to be 16.8 ± 3.01 µM.
`CCOC(=O)c1ccc(NC(=O)C2(OC(=O)c3ccccc3Cl)CCCCC2)cc1` [7e, 1-((4-(Ethoxycarbonyl)phenyl)carbamoyl)cyclohexyl 2-chlorobenzoate]: the melting point lay within 130 to 132 °C. Moreover, in the series on HepG-2 cells, the IC50 turned out to be 0.13 ± 0.009 µM and the “HepG-2 SI” value came out at 151.938. In the series with Caco-2 cells, the IC50 was 0.117 ± 0.01 µM and the “Caco-2 SI” value came to 168.820. Moreover, in the series on Wi-38 cells, the MNTC came to 1780 ± 169 nM and it took 19.8 ± 1.02 µM to reach half-maximal inhibition (IC50).
For `CCOC(=O)c1ccc(NC(=O)C2(OC(=O)CNC(=O)c3ccc(NC(=O)OC(C)(C)C)cc3)CCCCC2)cc1` [7i, Ethyl-4-(1-(2-(4-((tert-butoxycarbonyl)amino)benzamido)acetoxy)cyclohexanecarboxamido) benzoate], the melting point was 115 to 117 °C. In the series with HepG-2 cells, the half-maximal inhibitory concentration (IC50) worked out at 0.127 ± 0.044 µM and the “HepG-2 SI” value is listed as 179.566. In addition, in the series on Caco-2 cells, the IC50 was 0.132 ± 0.05 µM and the “Caco-2 SI” value was determined as 172.765. For the same molecule, in the series on Wi-38 cells, the MNTC was 1630 ± 259 nM and the half-maximal inhibitory concentration (IC50) turned out to be 22.8 ± 3.1 µM.
Turning to `CCOC(=O)c1ccc(NC(=O)C2(OC(=O)c3ccccc3)CCCCC2)cc1` [7c, Ethyl-4-(1-(benzoyloxy)cyclohexanecarboxamido)benzoate], the melting point is 140 to 142 °C. For the same molecule, in the series on HepG-2 cells, the IC50 was 0.184 ± 0.009 µM and the “HepG-2 SI” value worked out at 41.864. In addition, in the series on Caco-2 cells, the IC50 was 0.276 ± 0.034 µM and the “Caco-2 SI” value was found to be 27.909. In the series with Wi-38 cells, the MNTC is 2100 ± 92 nM and the IC50 was found to be 7.7 ± 0.321 µM.
For `CCOC(=O)c1ccc(NC(=O)C2(OC(=O)c3ccc4ccccc4n3)CCCCC2)cc1` [7b, 1-((4-(Ethoxycarbonyl)phenyl)carbamoyl)cyclohexyl quinoline-2-carboxylate], the melting point lay within 103 to 105 °C. Moreover, in the series on HepG-2 cells, the half-inhibitory concentration (IC50) is 0.228 ± 0.027 µM and the “HepG-2 SI” value worked out at 79.736. In the series with Caco-2 cells, the half-inhibitory concentration (IC50) is 0.172 ± 0.022 µM and the “Caco-2 SI” value was 105.697. In the series on Wi-38 cells, the MNTC was 1790 ± 111 nM and the half-inhibitory concentration (IC50) was 18.2 ± 2.22 µM.
`CCOC(=O)c1ccc(N2C(=O)OC3(CCCCC3)C2=O)cc1` [compound 11, Ethyl-4-(2,4-dioxo-1-oxa-3-azaspiro[4.5]decan-3-yl)benzoate] had a melting point of 143 to 145 °C. In addition, in the series with HepG-2 cells, the IC50 was 0.209 ± 0.017 µM and the “HepG-2 SI” value is on record as 47.468. Also, in the series with Caco-2 cells, the concentration for half-maximal inhibition (IC50) is 0.239 ± 0.071 µM and the “Caco-2 SI” value was found to be 41.510. Besides, in the series on Wi-38 cells, the MNTC worked out at 4940 ± 1540 nM and the concentration for half-maximal inhibition (IC50) came to 9.92 ± 1.61 µM.
